Measurements taken from patent US20260116910A1, “POLYCYCLIC COMPOUNDS AND METHODS THEREOF” (HEPAITECH (BEIJING) BIOPHARMA TECHNOLOGY CO., LTD., priority 2021, published 2026).

Legend:
human FXR (NR1H4) = target: T1, human FXR (NR1H4) (Homo sapiens, UniProt Q96RI1); assay: Human FXR (NR1H4) agonist assessment, FXRE-NanoLuc reporter in HEK293T cells; assay type: cell-based; conditions: FXR activation, HEK293T FXRE-NanoLuc reporter, 24 hr; for EC50: read-out: EC50
T1 sequence (Q96RI1 1-476 isoform Q96RI1-1): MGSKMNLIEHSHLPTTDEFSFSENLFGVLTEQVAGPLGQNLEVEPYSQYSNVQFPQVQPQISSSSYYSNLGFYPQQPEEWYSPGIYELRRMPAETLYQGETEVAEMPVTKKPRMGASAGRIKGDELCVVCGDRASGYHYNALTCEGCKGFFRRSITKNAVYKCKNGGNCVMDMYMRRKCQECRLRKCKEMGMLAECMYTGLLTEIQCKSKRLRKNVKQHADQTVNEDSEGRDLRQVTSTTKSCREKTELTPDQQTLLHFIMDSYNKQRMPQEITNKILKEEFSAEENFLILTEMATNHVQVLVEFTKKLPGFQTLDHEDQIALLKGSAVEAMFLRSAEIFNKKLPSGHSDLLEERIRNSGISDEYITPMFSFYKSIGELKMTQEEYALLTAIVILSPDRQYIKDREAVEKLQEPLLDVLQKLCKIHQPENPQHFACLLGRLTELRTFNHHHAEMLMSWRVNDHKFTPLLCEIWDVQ
In short: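 Read-out was NanoLuc luminescence in culture medium, measured 5 min after adding coelenterazine. Cells were HEK293T stably carrying human FXR and an FXRE reporter, exposed to compound for 24 hr at 37 °C. Vehicle was 0.01% DMSO. EC50 was obtained from sigmoid fits of gradient dilutions.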

MRGPRX4 = MRGPRX4 (Homo sapiens, UniProt Q96LA9); assay: MRGPRX4 activation, Fluo-8 Ca2+ FLIPR assay in HEK293T cells stably expressing MRGPRX4; assay type: cell-based; set-up: key to MRGPRX4 activation, Average / MRGPRX4 activation, Ave.: fluorescence change dF/F0; conditions: for EC50: MRGPRX4 activation, Ca2+ fluorescence, no activation in tested range reported as III, read-out: Activity (EC50 μM)
In short: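 Response measured as dF/F0: 30 s baseline, then 150 s after compound addition on FLIPR Tetra, in HHBS after 40-60 min room-temperature loading with 2 μM Fluo-8 AM.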

Sequence of MRGPRX4 (Q96LA9 whole entry): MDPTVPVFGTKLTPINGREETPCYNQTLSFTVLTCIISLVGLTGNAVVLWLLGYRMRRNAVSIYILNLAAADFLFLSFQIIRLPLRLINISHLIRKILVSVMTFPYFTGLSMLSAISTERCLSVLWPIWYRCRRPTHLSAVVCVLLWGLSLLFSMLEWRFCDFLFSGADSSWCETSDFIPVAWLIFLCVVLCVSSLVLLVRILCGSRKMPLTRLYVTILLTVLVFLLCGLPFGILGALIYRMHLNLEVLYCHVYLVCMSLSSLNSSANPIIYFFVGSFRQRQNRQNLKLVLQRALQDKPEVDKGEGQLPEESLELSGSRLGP

CC[C@H]1[C@@H](O)[C@@H]2[C@H](CC[C@]3(C)[C@@H]([C@H](C)COC(=O)NS(=O)(=O)c4ccc(N5CCCCC5)nc4)CC[C@@H]23)[C@@]2(C)CCCC[C@@H]12 [18-3]
Efficacy (maximum measured induction of NanoLuc, normalized to CDCA set as 100%) (human FXR (NR1H4)): A (efficacy >400%)
EC50 (human FXR (NR1H4)): < 1000 nM
MRGPRX4 activation, Average (MRGPRX4; E3-9, Conc. (Log[M]) −4.0): 0.519
MRGPRX4 activation, Average (MRGPRX4; E3-9, Conc. (Log[M]) −4.5): 0.027
MRGPRX4 activation, Average (MRGPRX4; E3-9, Conc. (Log[M]) −5.0): 0.021
MRGPRX4 activation, Average (MRGPRX4; E3-9, Conc. (Log[M]) −5.4): 0.018
MRGPRX4 activation, Average (MRGPRX4; E3-9, Conc. (Log[M]) −5.9): 0.018
EC50 (MRGPRX4): > 100 µM
Activation (%) (MRGPRX4; second E3-8-1, 4.6 nM, n = 1): 3.17%
Activation (%) (MRGPRX4; second E3-8-1, 4.6 nM, n = 2): 2.86%
Activation (%) (MRGPRX4; second E3-8-1, 14 nM, n = 1): 2.86%
Activation (%) (MRGPRX4; second E3-8-1, 14 nM, n = 2): 2.55%
Activation (%) (MRGPRX4; second E3-8-1, 41 nM, n = 1): 2.86%
Activation (%) (MRGPRX4; second E3-8-1, 41 nM, n = 2): 2.55%
Activation (%) (MRGPRX4; second E3-8-1, 123 nM, n = 1): 2.86%
Activation (%) (MRGPRX4; second E3-8-1, 123 nM, n = 2): 2.86%
Activation (%) (MRGPRX4; second E3-8-1, 370 nM, n = 1): 2.24%
Activation (%) (MRGPRX4; second E3-8-1, 370 nM, n = 2): 3.48%
Activation (%) (MRGPRX4; second E3-8-1, 1111 nM, n = 1): 2.55%
Activation (%) (MRGPRX4; second E3-8-1, 1111 nM, n = 2): 2.24%
Activation (%) (MRGPRX4; second E3-8-1, 3333 nM, n = 1): 3.17%
Activation (%) (MRGPRX4; second E3-8-1, 3333 nM, n = 2): 2.24%
Activation (%) (MRGPRX4; second E3-8-1, 10000 nM, n = 1): 2.24%
Activation (%) (MRGPRX4; second E3-8-1, 10000 nM, n = 2): 2.86%
Activation (%) (MRGPRX4; second E3-8-1, 30000 nM, n = 1): 1.63%
Activation (%) (MRGPRX4; second E3-8-1, 30000 nM, n = 2): 0.08%

[2H]C1CC[C@@]2(C)[C@@H](C1)[C@@H](CC)[C@@H](O)[C@@H]1[C@@H]2CC[C@]2(C)[C@@H]([C@H](C)CCNC(=O)NS(=O)(=O)c3ccc(C(C)(C)CF)cc3)CC[C@@H]12 (stereo partly shown) [13-2]
Efficacy (maximum measured induction of NanoLuc, normalized to CDCA set as 100%) (human FXR (NR1H4)): A (efficacy >400%)
EC50 (human FXR (NR1H4)): < 1000 nM
MRGPRX4 activation, Ave. (MRGPRX4; E3-7, Conc. (Log[M]) −4): −0.054
MRGPRX4 activation, Ave. (MRGPRX4; E3-7, Conc. (Log[M]) −4.5): −0.054
MRGPRX4 activation, Ave. (MRGPRX4; E3-7, Conc. (Log[M]) −5): −0.027
MRGPRX4 activation, Ave. (MRGPRX4; E3-7, Conc. (Log[M]) −5.5): −0.027
MRGPRX4 activation, Ave. (MRGPRX4; E3-7, Conc. (Log[M]) −6): −0.027
MRGPRX4 activation, Ave. (MRGPRX4; E3-7, Conc. (Log[M]) −7): 0.000
EC50 (MRGPRX4): > 100 µM

CC[C@H]1[C@@H](O)[C@@H]2[C@H](CC[C@]3(C)[C@@H]([C@H](C)CCNC(=O)NS(=O)(=O)N4CC5CC5C4)CC[C@@H]23)[C@@]2(C)CCCC[C@@H]12 (stereo partly shown) [5-12]
Efficacy (maximum measured induction of NanoLuc, normalized to CDCA set as 100%) (human FXR (NR1H4)): C (100%<efficacy <=300%)
EC50 (human FXR (NR1H4)): 1000 to 10000 nM
MRGPRX4 activation, Average (MRGPRX4; E3-6-2, 1st of 6 concentration columns (head not in rows shown)): 0.057
MRGPRX4 activation, Average (MRGPRX4; E3-6-2, 3rd of 6 concentration columns (head not in rows shown)): 0.023
MRGPRX4 activation, Average (MRGPRX4; E3-6-2, 6th of 6 concentration columns (head not in rows shown)): 0.013
MRGPRX4 activation, Average (MRGPRX4; E3-6-2, concentration not given): 0.013
EC50 (MRGPRX4): > 100 µM

CC[C@H]1[C@@H](O)[C@@H]2[C@H](CC[C@]3(C)[C@@H]([C@H](C)CCNS(=O)(=O)c4cc(F)ccc4F)CC[C@@H]23)[C@@]2(C)CCCC[C@@H]12 [6-2]
Efficacy (maximum measured induction of NanoLuc, normalized to CDCA set as 100%) (human FXR (NR1H4)): C (100%<efficacy <=300%)
EC50 (human FXR (NR1H4)): 1000 to 10000 nM
MRGPRX4 activation, Average (MRGPRX4; E3-9, Conc. (Log[M]) −4.0): 0.030
MRGPRX4 activation, Average (MRGPRX4; E3-9, Conc. (Log[M]) −4.5): 0.023
MRGPRX4 activation, Average (MRGPRX4; E3-9, Conc. (Log[M]) −5.0): 0.013
MRGPRX4 activation, Average (MRGPRX4; E3-9, Conc. (Log[M]) −5.4): 0.020
MRGPRX4 activation, Average (MRGPRX4; E3-9, Conc. (Log[M]) −5.9): 0.016
MRGPRX4 activation, Average (MRGPRX4; E3-9, Conc. (Log[M]) −6.4): 0.016
MRGPRX4 activation, Average (MRGPRX4; E3-9, Conc. (Log[M]) −6.9): 0.016
MRGPRX4 activation, Average (MRGPRX4; E3-9, Conc. (Log[M]) −7.3): 0.018
MRGPRX4 activation, Average (MRGPRX4; E3-9, Conc. (Log[M]) −7.8): 0.011
MRGPRX4 activation, Average (MRGPRX4; E3-9, Conc. (Log[M]) −8.3): 0.018
EC50 (MRGPRX4): > 100 µM
